Experiment [1] concerns the target sphingosine-1-phosphate receptor 1 (S1PR1) (Homo sapiens, UniProt P21453). In words: Radioligand binding to sphingosine-1-phosphate receptor 1. Particulars: test compound 100 nM, 0.2 nM radioligand; for inhibition at 0.1 µM: read-out: % INHIBITION of binding to the SIP1 Receptor. On the procedure: The binding of a representative group of compounds of this invention to sphingosine-1-phosphate receptor 1 (S1PR1) was determined by a published procedure (Rosenberg et al., 2016). In this assay, the test compound at 100 nM concentration was incubated with 0.2 nM radioligand. Active compounds or “hits” are defined as compounds that inhibit radioligand binding by 50% or more. […] This finding is significant because it establishes the 3′,4′-dihydro-2′H-[…]-2-one hybrid scaffold as an entirely new class of ligands for the sphingosine-1-phosphate receptors.

Experiment [2] has as its system EMT6 breast cancer cell line. In words: Antiproliferative screening on EMT6 cancer cells. Particulars: for activity at 100 µM: Mus musculus, EMT6, no ligand = 100, read-out: EMT6 cell proliferation (%); for inhibition of EMT6 cell proliferation / EMT6 cell proliferation (%): 100 μM; for EMT6 cell proliferation (%): no ligand = 100. It is filed as cell-based. On the procedure: Representative compounds were screened tested for antiproliferative activity on the EMT6 breast cancer cell line. Screening was carried out according to published procedures (Zeng et al., 2014). In this screen, compounds were tested at 100 μM concentration.

The test system of experiment [3] is renal cancer cell lines. In words: NCI-60 screen, renal cell lines. It is filed as cell-based, human. Particulars: Homo sapiens, NCI-60 preliminary screening, read-out: Percent (%) Inhibition of Cancer Cell Line, Renal Cell. On the procedure: (§1) Screening for Anticancer Activity—The NCI-60 panel: Representative compounds of the invention were subjected to anticancer testing in the National Cancer Institute (NCI) 60 screen. In this screen compounds are tested on a panel of sixty human cancer cell lines chosen from the following cancers: leukemia, nonsmall cell lung cancer (NSCLC), colon, melanoma, central nervous system (CNS), ovarian, renal, prostate and breast. The assay method is found on the NCI website (dtp.cancer.gov/discovery_development/nci-60/methodology.htm). In the NCI-60 assay, test compounds undergo preliminary screening at 10 μM concentration. The data is reported as percent growth relative to “no drug” control; therefore values between 0 and 100% denote growth inhibition.

Experiment [4] has as its system leukemia cell lines. Briefly: NCI-60 screen, leukemia cell lines. Type of experiment: cell-based. Particulars: Homo sapiens, NCI-60 preliminary screening, read-out: Percent (%) Inhibition of Cancer Cell Line, Leukemia. On the procedure:
as §1

In experiment [5] the test system is nonsmall cell lung cancer (NSCLC) cell lines. In words: NCI-60 screen, NSCLC cell lines. It is filed as cell-based, human. Particulars: Homo sapiens, NCI-60 preliminary screening, read-out: Percent (%) Inhibition of Cancer Cell Line, NSCLC. On the procedure:
as §1

The source of these data is patent US20220267329A1, “Dihydro-Spiro[Indoline-3:1'-Isoquinolin]-2-Ones and Their Analogues and Derivatives and Methods of Treating Cancer and Other Diseases” (The University of Buea, priority 2019, published 2022).

By inhibition is commonly meant the share of the control response that was lost under treatment.

Sequence of sphingosine-1-phosphate receptor 1 (S1PR1) (P21453 whole entry, species assumed): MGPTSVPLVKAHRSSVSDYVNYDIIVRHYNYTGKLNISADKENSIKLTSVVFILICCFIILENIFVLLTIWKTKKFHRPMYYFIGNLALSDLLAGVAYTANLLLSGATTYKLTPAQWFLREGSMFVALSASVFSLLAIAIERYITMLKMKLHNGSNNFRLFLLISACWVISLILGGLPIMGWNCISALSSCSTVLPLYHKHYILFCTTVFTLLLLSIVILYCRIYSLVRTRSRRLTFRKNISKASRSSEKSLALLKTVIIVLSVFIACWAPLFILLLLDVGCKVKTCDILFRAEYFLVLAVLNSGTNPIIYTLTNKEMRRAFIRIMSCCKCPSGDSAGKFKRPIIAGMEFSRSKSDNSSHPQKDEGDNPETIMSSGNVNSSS

Regarding `COc1cc2c(c(OC)c1OC)C1(NCC2)C(=O)Nc2c(Br)cc(Br)cc21` (stereo not drawn) [Compound 6c, 5,7-Dibromo-6′,7′,8′-trimethoxy-3′,4′-dihydro-2′H-spiro[indoline-3,1′-isoquinolin]-2-one], the inhibition at 0.1 µM in experiment [1] worked out at 36.7%.
As for `COc1cc2c(c(OC)c1OC)C1(NCC2)C(=O)N(Cc2ccc(F)cc2)c2ccccc21` (stereo not drawn) [Compound 6d, 1-(4-Fluorobenzyl)-6′,7′,8′-trimethoxy-3′,4′-dihydro-2′H-spiro[indoline-3,1′-isoquinolin]-2-one], the inhibition at 0.1 µM in experiment [1] is not below 50%.
As to `O=C1N(Cc2ccc(F)cc2)c2ccc(Cl)cc2C12NCCc1cc(O)ccc12` (stereo not drawn) [Compound 2k, 5-Chloro-1-(4-fluorobenzyl)-6′-hydroxy-3′,4′-dihydro-2′H-spiro[indoline-3,1′-isoquinolin]-2-one], in experiment [2], the activity at 100 µM was determined as 131%.
Regarding `O=C1N(Cc2ccc(Cl)cc2)c2ccc(Cl)cc2C12NCCc1cc(O)ccc12` (stereo not drawn) [Compound 2l, 5-Chloro-1-(4-chlorobenzyl)-6′-hydroxy-3′,4′-dihydro-2′H-spiro[indoline-3,1′-isoquinolin]-2-one], in experiment [2], the “inhibition of EMT6 cell proliferation” value was “as much as fifty percent” and the activity at 100 µM turned out to be 37.2%. For the same compound, the inhibition at 0.1 µM in experiment [1] is not below 50%.
For the compound `O=C1N(Cc2ccc(Cl)cc2)c2ccc(Cl)cc2C12NCCc1cccc(O)c12` (stereo not drawn) [Compound 1l, 5-Chloro-1-(4-chlorobenzyl)-8′-hydroxy-3′,4′-dihydro-2′H-spiro[indoline-3,1′-isoquinolin]-2-one], the inhibition at 0.1 µM in experiment [1] is not below 50%.
As for `O=C1N(Cc2ccc(Br)cc2)c2ccccc2C12NCCc1cc(O)ccc12` (stereo not drawn) [Compound 2f, 1-(4-bromobenzyl)-6′-hydroxy-3′,4′-dihydro-2′H-spiro[indoline-3,1′-isoquinolin]-2-one], in experiment [2], the “inhibition of EMT6 cell proliferation” value is recorded as “as much as fifty percent” and the activity at 100 µM is 41.4%.
For the compound `O=C1N(Cc2ccc(Br)cc2)c2ccccc2C12NCCc1cccc(O)c12` (stereo not drawn) [Compound 1f, 1-(4-bromobenzyl)-8′-hydroxy-3′,4′-dihydro-2′H-spiro[indoline-3,1′-isoquinolin]-2-one], the activity at 100 µM in experiment [2] was determined as 103%. Further, the inhibition at 0.1 µM in experiment [1] was not below 50%.
For the compound `COc1cc2c(c(OC)c1OC)C1(NCC2)C(=O)Nc2ccccc21` (stereo not drawn) [Compound 6a, 6′,7′,8′-Trimethoxy-3′,4′-dihydro-2′H-spiro[indoline-3,1′-isoquinolin]-2-one], in experiment [1], the inhibition at 0.1 µM was 38.4%. The inhibition at 10 µM in experiment [3] and in experiment [4] was 22% each time.
`O=C1N(Cc2ccc(F)cc2)c2ccc(Cl)cc2C12NCCc1cccc(O)c12` (stereo not drawn) [Compound 1k, 5-Chloro-1-(4-fluorobenzyl)-8′-hydroxy-3′,4′-dihydro-2′H-spiro[indoline-3,1′-isoquinolin]-2-one]: the inhibition at 0.1 µM in experiment [1] is not below 50%.
The same measure, in the same setting: the result for `COc1cc2c(c(OC)c1OC)C1(NCC2)C(=O)N(Cc2ccc(C)cc2)c2ccccc21` (stereo not drawn) [Compound 6e, 6′,7′,8′-Trimethoxy-1-(4-methylbenzyl)-3′,4′-dihydro-2′H-spiro[indoline-3,1′-isoquinolin]-2-one] reads 31.3%.
Take `Cc1ccc(CN2C(=O)C3(NCCc4cc(O)ccc43)c3cc(Cl)ccc32)cc1` (stereo not drawn) [Compound 2m, 5-Chloro-6′-hydroxy-1-(4-methylbenzyl)-3′,4′-dihydro-2′ spiro[indoline-3,1′-isoquinolin]-2-one]: in experiment [2], the “EMT6 cell proliferation (%)” value was 72.26%. Besides, in experiment [1], the “% INHIBITION of binding to the SIP1 Receptor” value (“% INHIBITION of binding” for short) was 52.4%.
Regarding `COc1cc2c(cc1OC)C1(NCC2)C(=O)N(Cc2ccc(F)cc2)c2ccccc21` (stereo not drawn) [Compound 5d, 1-(4-fluorobenzyl)-6′,7′-dimethoxy-3′,4′-dihydro-2′H-spiro[indoline-3,1′-isoquinolin]-2-one], the inhibition at 0.1 µM in experiment [1] is 40%.
`O=C1Nc2ccccc2C12NCCc1cc(O)c(O)cc12` (stereo not drawn) [Compound 3a, 6′,7′-Dihydroxy-3′,4′-dihydro-2′H-spiro[indoline-3,1′-isoquinolin]-2-one]: in experiment [2], the activity at 100 µM was 91.2%.
Regarding `O=C1N(Cc2ccc(Cl)cc2)c2ccccc2C12NCCc1cc(O)ccc12` (stereo not drawn) [Compound 2e, 1-(4-Chlorobenzyl)-6′-hydroxy-3′,4′-dihydro-2′H-spiro[indoline-3,1′-isoquinolin]-2-one], the activity at 100 µM in experiment [2] is 72.2%.
In the case of `Cc1ccc(CN2C(=O)C3(NCCc4cccc(O)c43)c3ccccc32)cc1` (stereo not drawn) [Compound 1h, 8′-Hydroxy-1-(4-methylbenzyl)-3′,4′-dihydro-2′H-spiro[indoline-3,1′-isoquinolin]-2-one], the activity at 100 µM in experiment [2] came to 127%. Further, the inhibition at 0.1 µM in experiment [1] is not below 50%.
On to `COc1ccc2c(c1)CCNC21C(=O)N(Cc2ccc(F)cc2)c2ccccc21` (stereo not drawn) [Compound 4d, 6′-Methoxy-1-(4-fluorobenzyl)-3′,4′-dihydro-2′H-spiro[indoline-3,1′-isoquinolin]-2-one], for which, in experiment [1], the inhibition at 0.1 µM was 41.5%.
On to `O=C1Nc2c(Br)cc(Br)cc2C12NCCc1cccc(O)c12` (stereo not drawn) [Compound 1c, 5,7-Dibromo-8′-hydroxy-3′,4′-dihydro-2′H-spiro[indoline-3,1′-isoquinolin]-2-one], for which the activity at 100 µM in experiment [2] was 87.6%.
Turning to `O=C1Nc2ccc(Cl)cc2C12NCCc1cc(O)c(O)cc12` (stereo not drawn) [Compound 3b, 5-Chloro-6′,7′-dibydroxy-3′,4′-dihydro-2′H-spiro[indoline-3,1′-isoquinolin]-2-one], the “% INHIBITION of binding” value in experiment [1] was determined as 34.2%.
Consider `O=C1N(Cc2ccccc2[N+](=O)[O-])c2ccccc2C12NCCc1cccc(O)c12` (stereo not drawn) [Compound 1i, 8-Hydroxy-1-(2-nitrobenzyl)-3′,4′-dihydro-2′H-spiro[indoline-3,1′-isoquinolin]-2-one], for which the “EMT6 cell proliferation (%)” value in experiment [2] is 108.20%. The “% INHIBITION of binding” value in experiment [1] was found to be 35.4%.
As for `COc1ccc2c(c1)CCNC21C(=O)Nc2ccc(Cl)cc21` (stereo not drawn) [Compound 4b, 5-Chloro-6′-methoxy-3′,4′-dihydro-2′H-spiro[indoline-3,1′-isoquinolin]-2-one], in experiment [2], the activity at 100 µM amounted to 142%. Also, the inhibition at 10 µM in experiment [3] lay within 23 to 30%.
Regarding `O=C1N(Cc2ccccc2[N+](=O)[O-])c2ccccc2C12NCCc1cc(O)ccc12` (stereo not drawn) [Compound 2i, 6′-Hydroxy-1-(2-nitrobenzyl)-3′,4′-dihydro-2′H-spiro[indoline-3,1′-isoquinolin]-2-one], in experiment [2], the activity at 100 µM worked out at 98.5%.
On to `O=C1N(Cc2ccc(F)cc2)c2ccccc2C12NCCc1cc(O)ccc12` (stereo not drawn) [Compound 2d, 1-(4-Fluorobenzyl)-6′-hydroxy-3′,4′-dihydro-2′H-spiro[indolline-3,1′-isoquinolin]-2-one], for which, in experiment [2], the “EMT6 cell proliferation (%)” value was found to be 123.61%.
Consider `COc1cc2c(cc1OC)C1(NCC2)C(=O)Nc2ccccc21` (stereo not drawn) [Compound 5a, 6′,7′-Dimethoxy-3′,4′-dihydro-2′H-spiro[indoline-3,1′-isoquinolin]-2-one], for which the inhibition at 0.1 µM in experiment [1] came out at 39.1%. Also, the inhibition at 10 µM in experiment [3] was in the range of 25 to 37%.
`Cc1ccc(CN2C(=O)C3(NCCc4cc(O)ccc43)c3ccccc32)cc1` (stereo not drawn) [Compound 2h, 6′-Hydroxy-1-(4-methylbenzyl)-3′,4′-dihydro-2′H-spiro[indoline-3,1′-isoquinolin]-2-one]: the inhibition at 10 µM in experiment [5] is 32%; in experiment [3], 25%; in experiment [4] it was 24%. In addition, in experiment [2], the activity at 100 µM came out at 132%.
Take `COc1ccc2c(c1)CCNC21C(=O)Nc2c(Br)cc(Br)cc21` (stereo not drawn) [Compound 4c, 5,7-Dibromo-6′-methoxy-3′,4′-dihydro-2′H-spiro[indoline-3,1′-isoquinolin]-2-one]: the inhibition at 0.1 µM in experiment [1] worked out at 36.3%.
On to `O=C1Nc2ccc(Cl)cc2C12NCCc1cc(O)ccc12` (stereo not drawn) [Compound 2b, 5-Chloro-6′-hydroxy-3′,4′-dihydro-2′H-spiro[indoline-3,1′-isoquinolin]-2-one], for which the inhibition at 10 µM in experiment [5] and in experiment [3] was 17% in each case. In experiment [2], the activity at 100 µM is 109%.
